Source: US20050203063A1, “Proteasome pathway inhibitors and related methods” (priority 2003, published 2005)
Where two headings read alike, the source gives them in different places. Where a SMILES comes first, the peptide text is derived from it. The star is where a group is joined. Cbz = O=C(OCc1ccccc1)*

Assays:
Assay type in all cases: biochemical
[1] = system: cyclin-luciferase (cyc-luc) turnover, activated APC/C; assay: cyc-luc turnover in mitotic Xenopus extracts (pre-treated with non-degradable cyclin B)
Description: (§1) FIG. 1. Functional classification of inhibitors. Compounds that scored in the initial screen were reacquired as dry powders and retested in Xenopus extracts in 4 assays at 200 μM concentration (32) as described (6). […] (A) Compounds and cyclin-luciferase were added to interphase extracts, which were then induced to enter mitosis by addition of non-degradable cyclin B. Percent inhibition of cyc-luc turnover by each compound is coded according to the grayscale shown at the bottom of the figure; specific values are available in Table 1. (B) Extracts were pre-treated with non-degradable cyclin B to allow entry into mitosis prior to addition of test compound and reporter protein. (C) Interphase extracts were treated by addition of recombinant Cdh1 to activate cyc-luc turnover. (D) Interphase extracts were treated with recombinant axin to induce turnover of β-catenin-luciferase.
(§2) The “Cmpd” column corresponds to the numbers used in FIG. 1; “Class” refers to the class of inhibitor described in FIG. 1 and the text. Columns A-D show percent inhibition in the four assays described in FIG. 1. (A) Interphase extracts (B) Mitotic extracts (C) Interphase extracts stimulated with Cdh1 (D) Degradation of a β-catenin reporter protein in interphase extracts stimulated with recombinant axin. […] “ID#” refers to the identification number of the inhibitor obtained from the NCI (prefaced by NSC) or Chembridge (prefaced by C).
(§3) Dry compounds were redissolved at 20 mM concentration in DMSO, or a 50:50 water:DMSO mixture in certain cases. These compounds were then diluted ten-fold in XB and mixed thoroughly. For the assay in FIG. 1A, chilled interphase extract was mixed with cyclin BΔ90 (10 μg/ml) and cyc-luc (0.1 μg/ml) in bulk and then 27 μl of extract was pipetted to each well of a chilled 384-well plate. Three microliters of each compound (diluted in XB) was then added to each well, and then compounds mixed thoroughly. Plates were warmed to room temperature. After 70 minutes, 5 μl aliquots were transferred to another plate, and then 30 μl of luciferin reagent was added to each well and luminescence measured. Percent inhibition was calculated as described above. The reported values represent the average of three independent measurments. For the assay in FIG. 1B, interphase extracts were treated with 10 μg/cyclin B 90 for 50 minutes at room temperature and then chilled on ice. Cyc-luc was then added, and then 27 μl of extract was pipetted to each well of a chilled 384-well plate. Three microliters of each compound (diluted in XB) was then added to each well, and then compounds mixed thoroughly. Plates were warmed to room temperature. After 60 minutes, 5 μl aliquots were transferred to another plate, and then 30 μl of luciferin reagent was added to each well and luminescence measured. For the assay in FIG. 1C, recombinant Cdh1 (0.1 μg/ml) and cyc-luc were added to chilled interphase extracts. Extracts were then pipetted and compounds added as above. Plates were warmed to room temperature and incubated for three hours, following which luminescence was measured as above. For the assay in FIG. 1D, chilled interphase extracts received recombinant axin and beta-catenin-luciferase reporter as described (8). Extracts were aliquoted to chilled plates and compounds distributed as described above. Plates were warmed to room temperature, incubated for three hours, and luminescence measured.

[2] = system: cyclin-luciferase (cyc-luc) turnover, APC/C activation; assay: cyc-luc turnover in interphase Xenopus extracts induced to enter mitosis by non-degradable cyclin B
Description: as §1, §2
Extracts were rapidly thawed and diluted to a final concentration of 75% in extract buffer (XB) just prior to assay (XB; 100 mM KCl, 0.1 mM CaCl2, 1 mM MgCl2, 10 mM potassium HEPES, pH 7.7, 50 mM sucrose). Extracts were kept on ice and supplemented with 1 mg/ml bovine ubiquitin (Sigma) unless otherwise stated. Cyc-luc expressed in reticulocyte lysate was diluted 1/200 for most assays. High-throughput screening utilized the bacterially expressed and purified cyclin-luc fusion protein, which was added to extracts at a final concentration of 0.1 μg/ml. To induce entrance into mitosis, cyclin BΔ90 protein was added to a final concentration of 10 μg/ml. For the dose response analysis, inhibitors were purchased from Calbiochem (San Diego, Calif.) and dissolved in DMSO as 10 mM stocks. Cyclin-luciferase and cyclin BΔ90 were mixed with interphase extract and placed on ice. Inhibitors were then added to extracts to yield a final DMSO concentration of 1%. 10 μl aliquots of extract were distributed into 384-well white Cliniplates (Labsystems), and cell cycle progression was initiated by warming the samples to room temperature. After 60 minutes, 30 μl of luciferin reagent (20 mM tricine pH 7.8, 470 μM D-Luciferin [Molecular Probes]), 270 μM Coenzyme A, 0.1 mM EDTA, 33 mM DTT, and 530 μM ATP) was added using a multidrop dispenser (Labsystems). Luminescence was measured on an Analyst plate reader (LJL Biosystems). The values for 3 replicates were averaged. For the dose response analysis, percent inhibition was calculated as 100*(T−M)/(I−M) where T equals the test value for the inhibitor, M equals the value in a mitotic extract lacking inhibitor, and I equals the value in an interphase extract. For certain experiments, methylated ubiquitin was added to interphase extracts at a concentration of 1 mg/ml in the presence or absence of added unmodified ubiquitin (1 mg/ml) used as competitor. Cyclin-luciferase and cyclin BΔ90 were then added. After 60 minutes, the reactions were stopped and analyzed as described above.
Dry compounds were redissolved at 20 mM concentration in DMSO, or a 50:50 water:DMSO mixture in certain cases. These compounds were then diluted ten-fold in XB and mixed thoroughly. For the assay in FIG. 1A, chilled interphase extract was mixed with cyclin BΔ90 (10 μg/ml) and cyc-luc (0.1 μg/ml) in bulk and then 27 μl of extract was pipetted to each well of a chilled 384-well plate.

[3] = system: β-catenin-luciferase turnover (substrate of the SCFβ-TRCP ubiquitin ligase); assay: β-catenin-luciferase turnover in interphase Xenopus extracts stimulated with recombinant axin
Description: as §1, §2, §3

[4] = system: Cdh1-stimulated cyc-luc proteolysis (APC/C); assay: cyc-luc turnover in interphase Xenopus extracts stimulated with recombinant Cdh1
Description: as §1, §2, §3

[5] = 200 μM compound, extracts in mitosis before addition of compound
[6] = 200 μM compound, added to interphase extracts then induced to enter mitosis, average of three measurements
[7] = 200 μM compound, negative values reflect stimulation of proteolysis

SMILES	percent inhibition of cyc-luc turnover, (B) Mitotic extracts [1, 5]	percent inhibition of cyc-luc turnover, (A) Interphase extracts [2, 6]	percent inhibition, (D) Degradation of a β-catenin reporter protein in interphase extracts stimulated with recombinant axin ([3]; 200 μM compound)	percent inhibition of cyc-luc turnover, (C) Interphase extracts stimulated with Cdh1 [4, 7]	further results
O=C1c2ccccc2C2=NNC3=C(S(=O)(=O)O)C=CC1C23 (stereo not drawn) [Compound 10]	0%	33%	21%	−4%	
O=C(NNC(=S)NC(=O)C12CC3CC(CC(C3)C1)C2)c1ccncc1 [Compound 13]	0%	75%	0%	−9%	
O=S(=O)(O)c1ccc2c(/N=N/c3ccccc3)c(O)ccc2c1 [Compound 18]	4%	73%	0%	−7%	
Nc1ncnc(Nc2ccc(S(N)(=O)=O)cc2)n1 [Compound 25]	3%	66%	0%	−6%	
Nc1ncnc2c1ncn2C1OC2COP(=O)(O)OC2C1O (stereo not drawn) [Compound 34]					percent inhibition of cyc-luc turnover, (B) Mitotic extracts ([1]; 200 µM): 0%; percent inhibition of cyc-luc turnover, (A) Interphase extracts ([2]; 200 µM): 100%; percent inhibition, (D) Degradation of a β-catenin reporter protein in interphase extracts stimulated with recombinant axin ([3]; 200 µM): 6%; percent inhibition of cyc-luc turnover, (C) Interphase extracts stimulated with Cdh1 ([4]; 200 µM): −8%
Nc1ncnc2c1c(Cl)cn2[C@@H]1O[C@H](CO)[C@@H](O)[C@H]1O [Compound 39]	9%	100%	67%	−7%	
ON=c1[nH]cnc2[nH]cc(Br)c12 [Compound 40]	0%	42%	3%	−6%	
N#Cc1c(NN)n(C2OC(CO)C(O)C2O)c2ncnc(N)c12 (stereo not drawn) [Compound 51]	0%	100%	30%	0%	
CC(=O)Nc1ncnc2[nH]ncc12 [Compound 54]	3%	54%	0%	−6%	
CC(C)C[C@@H](C=O)NC(=O)[C@H](CC(C)C)NC(=O)[C@H](CC(C)C)NC(=O)OCc1ccccc1 [MG132, reference compound] (Cbz-Leu-Leu-Leu-aldehyde)					effect on loss of cyc-luc activity / activation of latent APC/C activity (in words) ([2]; assay validation, inhibitor added to interphase extract before mitotic entry): partially inhibited
CC[C@H](CO)Nc1nc(NCc2ccccc2)c2ncn(C(C)C)c2n1 [roscovitine, reference compound]					effect on cyc-luc proteolysis in mitotic extracts (in words) [1]: ineffective; effect on loss of cyc-luc activity / activation of latent APC/C activity (in words) [2]: blocked
